The METLIN SMRT retention time set (Domingo-Almenara et al. 2019)

experiment: gradient 5% acetonitrile 3 min, to 50% in 2 min, to 85% in 15 min, held 3 min, 100 µL/min; conditions: column: Zorbax Extend-C18 2.1 x 50 mm; eluents: water / acetonitrile, 0.1% formic acid
Method in brief: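 Each retention time is based on an adduct peak selected computationally and verified by manual inspection. Measurements used HPLC–quadrupole time-of-flight mass spectrometry in positive and negative ionization mode on mixtures of ~100 pure standards. Chromatography ran on a Zorbax Extend-C18 column (2.1 × 50 mm, 1.8 μm) at 100 μL/min with water and acetonitrile, each containing 0.1% formic acid, and dead and dwell volumes of 40 μL and 900 μL.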

Which RP-LC retention time does the source give for COc1ccc(-n2cc(C(=O)OCc3cc(=O)n4ccccc4n3)c3ccccc3c2=O)cc1 here?
Its RP-LC retention time is 861 s.

For Cc1cccc(OCC(=O)N2CCC3(C2)C(=O)N(C)c2ccccc23)c1 (stereo not given), which RP-LC retention time is on record?
Its RP-LC retention time is 825 s.

With CCCS(=O)(=O)N1CC(c2nnc(-c3ccncc3)o2)C2(CCOCC2)C1 (stereo not given) as the molecule, how does the RP-LC retention time read?
The RP-LC retention time was 625 s.

For CC(C)NC(=O)c1ccc(OCC2CCCN(C(=O)Cc3ccccc3F)C2)cc1 (stereo not given), which RP-LC retention time is on record?
The RP-LC retention time was 875 s.

For Cc1ccccc1CNC(=O)c1cc2n(n1)CC(C)(C(=O)NC1CCCC1)N(C)C2=O (stereo not given), which RP-LC retention time is on record?
Its RP-LC retention time is 767 s.

For Cc1nc(CC(=O)Nc2nc(-c3ccc(C)c(C)c3)cs2)cs1, which RP-LC retention time is on record?
Its RP-LC retention time is 989 s.

For Cc1ccc(NC(=O)N2CCC(C(C)C(=O)Nc3ccc(C)cc3Cl)CC2)cc1 (stereo not given), which RP-LC retention time is on record?
Its RP-LC retention time is 950 s.

Which RP-LC retention time does the source give for CNC(=O)c1cccc(NC(=O)N2CCC(Oc3ccccc3Cl)CC2)c1 here?
The RP-LC retention time was 899 s.

Which RP-LC retention time does the source give for CCc1noc(NC(C)=O)c1-c1ccc(C)c(S(=O)(=O)NCc2ccc(F)cc2)c1 here?
The RP-LC retention time was 814 s.

With Cc1ccc(CN2C[C@@H]3C(=O)N(C)C(=O)[C@@H]3C2)cc1C as the molecule, how does the RP-LC retention time read?
Its RP-LC retention time is 604 s.

With COc1ccc(-c2ccc(=O)n(CCNC(=O)c3ccno3)n2)cc1 as the molecule, how does the RP-LC retention time read?
The RP-LC retention time was 628 s.

For Cn1c(N2CCN(C(=O)c3c(F)cccc3F)CC2)cc(=O)n(C)c1=O, which RP-LC retention time is on record?
The RP-LC retention time was 648 s.

With COC(=O)C(C)NC(=O)N1CCC2(CC1)NC(=O)c1ccccc1O2 (stereo not given) as the molecule, how does the RP-LC retention time read?
Its RP-LC retention time is 621 s.

With O=C(c1cc(S(=O)(=O)N2CCCC(C(=O)N3CCc4ccccc43)C2)c[nH]1)N1CCCCCC1 (stereo not given) as the molecule, how does the RP-LC retention time read?
Its RP-LC retention time is 949 s.

For CN(C)CCCNc1cc(N2CCOCC2)c2noc3c2c1C(=O)c1ccccc1-3, which RP-LC retention time is on record?
Its RP-LC retention time is 770 s.

With Cc1csc(-c2ccc(N3CCN(C(=O)c4ccsc4)CC3)nc2)n1 as the molecule, how does the RP-LC retention time read?
Its RP-LC retention time is 762 s.

For CCOC(=O)C1CCN(c2ncnc3c2cnn3-c2ccc(OC)cc2)CC1, which RP-LC retention time is on record?
Its RP-LC retention time is 952 s.

With Cc1cc2c(cc1S(=O)(=O)N1CCCC1C(=O)Nc1ccc(F)cc1F)OCC(=O)N2 (stereo not given) as the molecule, how does the RP-LC retention time read?
The RP-LC retention time was 774 s.

With Cc1cnc(C2CN(CC3CCCCC3)C2)n1Cc1ccccc1 as the molecule, how does the RP-LC retention time read?
Its RP-LC retention time is 600 s.

For Cc1ccc(NC(=O)C2(c3ccc4c(c3)OC(F)(F)O4)CC2)nc1-c1cccc(C(=O)O)c1, which RP-LC retention time is on record?
The RP-LC retention time was 1130 s.

With CC(C)S(=O)(=O)Nc1ccc2c(c1)CN(C(=O)c1ccco1)CC2 as the molecule, how does the RP-LC retention time read?
Its RP-LC retention time is 685 s.

Which RP-LC retention time does the source give for Cc1c(CCC(=O)NCc2cccnc2)c(=O)n2nc(-c3ccc(Cl)cc3)nc2n1C here?
The RP-LC retention time was 632 s.

With Cc1noc(CNC(=O)c2ccc(OCc3nc(-c4ccco4)cs3)cc2)n1 as the molecule, how does the RP-LC retention time read?
Its RP-LC retention time is 758 s.

Which RP-LC retention time does the source give for CCOC(=O)C1CCN(C(=O)c2nnc(-c3ccc(S(=O)(=O)N(C)C)cc3)o2)CC1 here?
Its RP-LC retention time is 829 s.

For CC(C)OC(=O)COC(=O)c1cn(-c2ccc(F)cc2)c(=O)c2ccccc12, which RP-LC retention time is on record?
Its RP-LC retention time is 1090 s.

With Cc1cnc(-c2cccnc2)n1C1CCN(S(=O)(=O)c2ccc3c(c2)OCCO3)C1 (stereo not given) as the molecule, how does the RP-LC retention time read?
The RP-LC retention time was 633 s.

Which RP-LC retention time does the source give for CN1c2cc(F)ccc2C(=O)NC12CCN(C(=O)Nc1ccccc1)CC2 here?
The RP-LC retention time was 695 s.

With CCC(=O)N1CCc2cc(N3CC(C(=O)NCc4ccccc4)CC3=O)ccc21 (stereo not given) as the molecule, how does the RP-LC retention time read?
The RP-LC retention time was 699 s.

Which RP-LC retention time does the source give for COc1cc(Nc2cc(C(=O)N3CCC(C)CC3)nc3ccc(C)cc23)cc(OC)c1OC here?
Its RP-LC retention time is 703 s.

For O=S(=O)(c1ccc(-c2cc(C(F)(F)F)on2)o1)N1CCN(c2ncccn2)CC1, which RP-LC retention time is on record?
Its RP-LC retention time is 1060 s.

Which RP-LC retention time does the source give for Cc1nnc2ccc(N3CCOCC3)nn12 here?
The RP-LC retention time was 600 s.

With O=C(Cc1cccs1)N1CCCC1c1nc(-c2ccc(F)cc2F)no1 (stereo not given) as the molecule, how does the RP-LC retention time read?
The RP-LC retention time was 935 s.

For COc1cccc(-c2csc(-c3nnn(-c4cccc(Cl)c4)c3N)n2)c1, which RP-LC retention time is on record?
Its RP-LC retention time is 1170 s.

Which RP-LC retention time does the source give for CCCS(=O)(=O)N1CCc2ccc(NC(=O)c3cccn(C)c3=O)cc2C1 here?
The RP-LC retention time was 731 s.

Which RP-LC retention time does the source give for Cc1ccc(CN2C(=O)C3(CCOCC3)CC2c2nnnn2C(C)(C)C)cc1 (stereo not given) here?
Its RP-LC retention time is 783 s.

Which RP-LC retention time does the source give for O=C(NC1CCCN(c2cc(N3CCCC3)ncn2)C1)c1ccoc1 (stereo not given) here?
Its RP-LC retention time is 671 s.

Which RP-LC retention time does the source give for Cc1cc(C(=O)NCC(C)C)c2cc(Cl)ccc2n1 here?
The RP-LC retention time was 784 s.

With CCN(C(=O)CCc1ccccc1)c1nc(-c2ccccc2)cs1 as the molecule, how does the RP-LC retention time read?
The RP-LC retention time was 1320 s.

With O=c1ccc(N2CCC(NS(=O)(=O)c3ccccc3Cl)CC2)nn1CC1CC1 as the molecule, how does the RP-LC retention time read?
The RP-LC retention time was 747 s.

Which RP-LC retention time does the source give for O=C(CN1C(=O)CCc2cc(Br)ccc21)N1CCN(c2ncccn2)CC1 here?
The RP-LC retention time was 786 s.

With CNS(=O)(=O)c1cccc(-c2nnc(-c3ccc(C)cc3)o2)c1 as the molecule, how does the RP-LC retention time read?
Its RP-LC retention time is 856 s.

With O=C(C1CCCN(c2ccncc2)C1)N1CCCCCC1 (stereo not given) as the molecule, how does the RP-LC retention time read?
The RP-LC retention time was 603 s.

For Cc1ccc(NC(=O)Cn2nc(N3CCOCC3)c3ccccc3c2=O)c(Br)c1, which RP-LC retention time is on record?
The RP-LC retention time was 884 s.

With CCCNC(=O)C(=O)NCC(c1ccc2c(c1)CCCN2C)N1CCCC1 (stereo not given) as the molecule, how does the RP-LC retention time read?
The RP-LC retention time was 647 s.

Which RP-LC retention time does the source give for CC(=O)c1cccc(NC(=O)Nc2cccc(-c3ccc(N4CCCC4)nn3)c2)c1 here?
Its RP-LC retention time is 654 s.
